# Source: ChEMBL document CHEMBL5579875, “Discovery of VU6008677: A Structurally Distinct Tricyclic M4 Positive Allosteric Modulator with Improved CYP450 Profile” (ACS Med Chem Lett, 2024)
# What was measured:
# [1] = Plasma protein binding in human assessed as unbound fraction at 5 uM incubated for 6 hrs by LC-MS/MS analysis; assay type: ADME, cell-free
# [2] = Plasma protein binding in rat assessed as unbound fraction at 5 uM incubated for 6 hrs by LC-MS/MS analysis; assay type: ADME, cell-free
# [3] = Unbound fraction in rat brain homogenate at 1 uM incubated for 6 hrs by LC-MS/MS analysis; assay type: ADME, tissue-based
Fu [1],Fu [2],Fu [3],SMILES
0.01,0.01,0.005,Cc1c(Cl)cnc2sc3c(NC4CC(c5ccncc5)C4)ncnc3c12 (stereo not given)
0.004,0.01,,Cc1nc2sc3c(NC4CC4)ncnc3c2c(C)c1Cl.Cl
